Experimental data reported in patent publication US20100119452A1, “SCREENING METHOD” (Takeda Pharmaceutical Company Limited, priority 2007, published 2010).

Tests used:
androgen receptors = experiment: Reporter assay using LNCaP-hr cells (6k-PSA promoter, firefly luciferase); format: cell-based, human; conditions: LNCaP-hr cells with PSA promoter-luciferase, 24 hours after addition
Description: As a negative control compound, conventional AR antagonist, bicalutamide was used. 6k-PSA promoter and firefly luciferase gene were used as a PSA promoter and a reporter gene, respectively.
LNCaP-hr cells transfected with a reporter gene linked to a PSA promoter were plated on 96-well plates at a density of 50,000 cells/100 μL/well, to which the test compounds were added after the cells were cultured for 8 hours. The reporter activity was determined 24 hours after the addition of the test compounds. The suppressing activity of the test compounds on the reporter gene was calculated based on the assumption that the reporter activity in the cells without the addition of the test compounds (control group) was 100% and the reporter activity of the non-treated LNCaP-hr cells without introduction of the reporter gene was 0%.

LNCaP-hr cells = experiment: Antitumor test using nude mice transplanted with LNCaP-hr cells; format: in vivo; conditions: castrated nude mice, LNCaP-hr subcutaneous, 15 mg/kg orally twice daily for three weeks; for T/C (tumor volume): control 100%, start of administration 0%
Description: LNCaP-hr cells were suspended in Matrigel, and 5×10^6 cells were transplanted subcutaneously into the flank of castrated nude mice. When tumor volume reached approximately 100 mm^3, the animals were grouped based on the tumor volume, and administered orally with 15 mg/kg body weight of the compound twice daily for three weeks. The tumor volume was calculated based on the assumption that the volume of the control group was 100% and the volume of the treated group at the start of the administration was 0% (T/C %).

Structure (SMILES): Cc1cc(-c2ccc(C#N)cc2)c(C)n1Cc1cc(C(F)(F)F)n[nH]1 [Compound 6]
- Suppressing activity on the reporter gene (androgen receptors): Concentration-dependent suppressing activity on the reporter gene was observed
- Antitumor activity (LNCaP-hr cells): antitumor activity was observed
- T/C (tumor volume) (LNCaP-hr cells): T/C = −3%

Structure (SMILES): Cc1cc(-c2ccc(C#N)cc2)c(C#N)n1Cc1cc(C(F)(F)F)n[nH]1 [Compound 8]
- Suppressing activity on the reporter gene (androgen receptors): Concentration-dependent suppressing activity on the reporter gene was observed
- Antitumor activity (LNCaP-hr cells): antitumor activity was observed
- T/C (tumor volume) (LNCaP-hr cells): T/C = −5%

Structure (SMILES): Cc1cc(-c2ccc(C#N)cc2)c(C)n1Cc1cn[nH]c1C(C)(C)O [Compound 9]
- Suppressing activity on the reporter gene (androgen receptors): Concentration-dependent suppressing activity on the reporter gene was observed
- Antitumor activity (LNCaP-hr cells): antitumor activity was observed
- T/C (tumor volume) (LNCaP-hr cells): T/C = 24%
